Data taken from ChEMBL document CHEMBL1821700, “SAR by interligand nuclear overhauser effects (ILOEs) based discovery of acylsulfonamide compounds active against Bcl-x(L) and Mcl-1” (J Med Chem, 2011).

Assays:
Bcl-2-like protein 1 [1] = target: T1, Bcl-2-like protein 1 (Homo sapiens, UniProt Q07817); test: Binding affinity to Bcl-xL by 2D- NOESY analysis
[2] = target: Induced myeloid leukemia cell differentiation protein Mcl-1 (Homo sapiens, UniProt Q07820); test: Displacement of FITC labeled Bak BH3 peptide from Mcl-1 after 2 mins by Fluorescence Polarization assay
Bcl-2-like protein 1 [3] = target: T1, Bcl-2-like protein 1; test: Displacement of FITC labeled Bak BH3 peptide from Bcl-xL after 10 mins by Fluorescence Polarization assay

T1 sequence (Q07817 whole entry): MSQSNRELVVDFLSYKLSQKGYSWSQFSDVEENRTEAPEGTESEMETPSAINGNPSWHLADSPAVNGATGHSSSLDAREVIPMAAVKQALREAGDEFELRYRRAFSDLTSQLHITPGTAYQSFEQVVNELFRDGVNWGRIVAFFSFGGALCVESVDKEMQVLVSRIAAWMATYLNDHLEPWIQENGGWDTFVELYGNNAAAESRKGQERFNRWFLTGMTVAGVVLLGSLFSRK
Chain of Induced myeloid leukemia cell differentiation protein Mcl-1 (Q07820 whole entry): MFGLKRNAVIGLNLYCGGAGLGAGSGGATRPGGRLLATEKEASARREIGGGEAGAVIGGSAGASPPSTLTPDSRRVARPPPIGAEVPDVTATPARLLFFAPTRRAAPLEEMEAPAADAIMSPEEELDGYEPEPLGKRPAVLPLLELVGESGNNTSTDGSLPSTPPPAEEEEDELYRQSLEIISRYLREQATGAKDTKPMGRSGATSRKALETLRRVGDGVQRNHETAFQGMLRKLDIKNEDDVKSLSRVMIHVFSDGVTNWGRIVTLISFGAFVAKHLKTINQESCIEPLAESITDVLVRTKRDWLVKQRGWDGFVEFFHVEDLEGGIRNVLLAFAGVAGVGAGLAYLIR

| Compound | Kd (Bcl-2-like protein 1 [1]) | IC50 [2] | IC50 (Bcl-2-like protein 1 [3]) |
| --- | --- | --- | --- |
| O=C(O)c1ccc(-c2ccc(F)cc2)cc1 | 300 µM |  |  |
| O=C(O)c1ccccc1N1CCCCC1 | 378 µM |  |  |
| O=C(NS(=O)(=O)c1ccc(COc2ccccc2)cc1)c1ccc(-c2ccccc2)cc1 |  | 43.2 µM | 16.8 µM |
| O=C(NS(=O)(=O)c1ccc(COc2ccccc2)cc1)c1cccc(-c2ccccc2)c1 |  | 25.4 µM | 15.1 µM |
| O=C(NS(=O)(=O)c1ccc(COc2ccccc2)cc1)c1ccccc1-c1ccccc1 |  | > 1000 µM | 42.7 µM |
| O=C(NS(=O)(=O)c1ccc(COc2ccccc2)cc1)c1ccc(-c2ccc(F)cc2)cc1 |  | 16.6 µM | 9.37 µM |
| O=C(NS(=O)(=O)c1ccc(COc2ccccc2)cc1)c1ccc(-c2ccc(Cl)cc2)cc1 |  | 7.26 µM | 3.79 µM |
| O=C(NS(=O)(=O)c1ccc(COc2ccccc2)cc1)c1ccc(-c2cc(Cl)cc(Cl)c2)cc1 |  | 2.51 µM | 4.14 µM |
| O=C(NS(=O)(=O)c1ccc(Oc2ccccc2)cc1)c1ccc(-c2ccccc2)cc1 |  | 3.56 µM | 28 µM |
| O=C(NS(=O)(=O)c1ccc(Oc2ccccc2)cc1)c1ccc(-c2ccc(F)cc2)cc1 |  | 17.8 µM | 33.5 µM |
| O=C(NS(=O)(=O)c1ccc(Oc2ccccc2)cc1)c1ccc(-c2cc(Cl)cc(Cl)c2)cc1 |  | 5.08 µM | 49.5 µM |
| O=C(NS(=O)(=O)c1ccc(OCc2ccccc2)cc1)c1ccc(-c2cc(Cl)cc(Cl)c2)cc1 |  | 6.3 µM | 3.19 µM |
| O=C(NS(=O)(=O)c1ccc(-c2ccccc2)cc1)c1ccc(Oc2ccccc2)cc1 |  | > 1000 µM | 161 µM |
| O=C(NS(=O)(=O)c1ccc(COc2ccccc2)cc1)c1cccc(-c2ccc(C(F)(F)F)cc2)c1 |  | 8.37 µM | 6.2 µM |
| O=C(NS(=O)(=O)c1ccc(COc2ccccc2)cc1)c1cccc(-c2cc(Cl)cc(Cl)c2)c1 |  | 7.57 µM | 0.31 µM |
| O=C(NS(=O)(=O)c1ccc(OCc2ccccc2)cc1)c1cccc(-c2cc(Cl)cc(Cl)c2)c1 |  | 0.22 µM | 0.18 µM |
| O=C(NS(=O)(=O)c1ccc(COc2ccccc2)cc1)c1cccc(-c2ccc(Cl)cc2Cl)c1 |  | 8.69 µM | 9.98 µM |
| O=C(NS(=O)(=O)c1ccc(COc2ccccc2)cc1)c1cccc(-c2ccc(Cl)c(Cl)c2)c1 |  | 5.76 µM | 7.15 µM |
| O=C(NS(=O)(=O)c1ccc(Oc2ccccc2)cc1)c1cccc(-c2ccccc2)c1 |  | 3.24 µM | 28.5 µM |

| Compound | Kd (Bcl-2-like protein 1 [1]) | IC50 [2] | IC50 (Bcl-2-like protein 1 [3]) |
| --- | --- | --- | --- |
| O=C(NS(=O)(=O)c1ccc(Oc2ccccc2)cc1)c1cccc(-c2cc(Cl)cc(Cl)c2)c1 |  | 7.11 µM | 2.53 µM |
| O=C(NS(=O)(=O)c1ccc(Oc2ccccc2)nc1)c1cccc(-c2cc(Cl)cc(Cl)c2)c1 |  | 9.78 µM | 2.31 µM |
| O=C(NS(=O)(=O)c1ccc(Oc2ccccc2)cc1)c1cccc(-c2cccc(Cl)c2Cl)c1 |  | 4.76 µM | 4.08 µM |
| O=C(NS(=O)(=O)c1ccc(Oc2ccccc2)cc1)c1cccc(-c2ccc(Cl)cc2Cl)c1 |  | 3.72 µM | 1.94 µM |
| O=C(NS(=O)(=O)c1ccc(Oc2ccccc2)cc1)c1cccc(-c2ccc(Cl)c(Cl)c2)c1 |  | 2.48 µM | 1.97 µM |
| COc1ccc(-c2cccc(C(=O)NS(=O)(=O)c3ccc(Oc4ccccc4)cc3)c2)cc1OC |  | 42.6 µM | > 1000 µM |
| O=C(NS(=O)(=O)c1ccc2ccccc2c1)c1cccc(-c2ccc(Cl)c(Cl)c2)c1 |  | 13.2 µM | 10.9 µM |
| CCCCOc1ccc(S(=O)(=O)NC(=O)c2cccc(-c3ccc(Cl)c(Cl)c3)c2)cc1 |  | 38.8 µM | 12.1 µM |
| O=C(NS(=O)(=O)c1ccc(OCc2ccccc2)cc1)c1cccc(-c2ccc(Cl)c(Cl)c2)c1 |  | 4.88 µM | 2.96 µM |
| O=C(NS(=O)(=O)c1ccc(OCC2CCCCC2)cc1)c1cccc(-c2ccc(Cl)c(Cl)c2)c1 |  | 0.62 µM | 0.16 µM |
| COc1ccccc1Oc1ccc(S(=O)(=O)NC(=O)c2cccc(-c3ccc(Cl)c(Cl)c3)c2)cc1 |  | 6.63 µM | 3.76 µM |
| N#Cc1c(Cl)cccc1Oc1ccc(S(=O)(=O)NC(=O)c2cccc(-c3ccc(Cl)c(Cl)c3)c2)cc1 |  | 3.18 µM | 2.7 µM |
| O=C(NS(=O)(=O)c1ccc(Oc2c(Cl)cccc2[N+](=O)[O-])cc1)c1cccc(-c2ccc(Cl)c(Cl)c2)c1 |  | 3.04 µM | 2 µM |
| O=C(NS(=O)(=O)c1ccc(Oc2cc(C(F)(F)F)cc(C(F)(F)F)c2)cc1)c1cccc(-c2ccc(Cl)c(Cl)c2)c1 |  | 3.04 µM | 2.94 µM |
| O=C(NS(=O)(=O)c1ccc(Oc2ccc(F)cc2)cc1)c1cccc(-c2ccc(Cl)c(Cl)c2)c1 |  | 3.91 µM | 2.87 µM |
| CCOc1ccc(Oc2ccc(S(=O)(=O)NC(=O)c3cccc(-c4ccc(Cl)c(Cl)c4)c3)cc2)cc1 |  | 0.14 µM | 0.086 µM |
| Nc1ncccc1OCc1ccccc1 | 692 µM |  |  |
| Oc1cccc2c1CCCC2 | 4300 µM |  |  |
